Test results from ChEMBL document CHEMBL1138382, “Tetrahydroquinoline sulfonamides as gamma-secretase inhibitors” (Bioorg Med Chem Lett, 2007).

Target: Gamma-secretase
Test: Inhibition of Gamma-secretase
Type: protein-complex assay, Homo sapiens

O=C(NCCCN1CCCC1)OCC1CCc2ccccc2N1S(=O)(=O)c1ccc(Cl)cc1 (centres undefined)
IC50: 394 nM

CCN(CCC1CCCN1C)C(=O)OCC1CCc2ccccc2N1S(=O)(=O)c1ccc(Cl)cc1 (centres undefined)
IC50: 253 nM

O=C(OCC1CCc2ccccc2N1S(=O)(=O)c1ccc(Cl)cc1)N1CCC(N2CCCCCC2)CC1 (centres undefined)
IC50: 255 nM

O=C(NCCc1ccccc1)OCC1CCc2ccccc2N1S(=O)(=O)c1ccc(Cl)cc1 (centres undefined)
IC50: 1100 nM

O=C(OCC1CCc2ccc(F)cc2N1S(=O)(=O)c1ccc(Cl)cc1)N1CCC(N2CCCCC2)CC1 (centres undefined)
IC50: 56 nM

O=C(OCC1CCc2c(F)ccc(F)c2N1S(=O)(=O)c1ccc(Cl)cc1)N1CCC(N2CCCCC2)CC1 (centres undefined)
IC50: 217 nM

O=C(NCCO)OCC1CCc2ccccc2N1S(=O)(=O)c1ccc(Cl)cc1 (centres undefined)
IC50: 4490 nM

CCCN1CCN(C(=O)OCC2CCc3ccccc3N2S(=O)(=O)c2ccc(Cl)cc2)CC1 (centres undefined)
IC50: 440 nM

NC1CCN(C(=O)OCC2CCc3ccccc3N2S(=O)(=O)c2ccc(Cl)cc2)CC1 (centres undefined)
IC50: 680 nM

O=C(OCC1CCc2ccccc2N1S(=O)(=O)c1ccc(Cl)cc1)N1CCN(CCO)CC1 (centres undefined)
IC50: 299 nM

O=C(OCC1CCc2cc(F)ccc2N1S(=O)(=O)c1ccc(Cl)cc1)N1CCC(N2CCCCC2)CC1 (centres undefined)
IC50: > 1000 nM

O=C(NCc1ccc([N+](=O)[O-])cc1)OCC1CCc2ccccc2N1S(=O)(=O)c1ccc(Cl)cc1 (centres undefined)
IC50: 2960 nM

O=C(OCC1CCc2ccccc2N1S(=O)(=O)c1ccc(Cl)cc1)N1CCC(N2CCCC2)CC1 (centres undefined)
IC50: 290 nM

O=C(OCC1CCc2ccccc2N1S(=O)(=O)c1ccc(Cl)cc1)N1CCN(C2CCCCC2)CC1 (centres undefined)
IC50: 540 nM

O=C(OCC1CCc2c(F)cc(F)cc2N1S(=O)(=O)c1ccc(Cl)cc1)N1CCC(N2CCCCC2)CC1 (centres undefined)
IC50: 219 nM

CN1CCCC1CCNC(=O)OCC1CCc2ccccc2N1S(=O)(=O)c1ccc(Cl)cc1 (centres undefined)
IC50: 504 nM

O=C(OCC1CCc2ccccc2N1S(=O)(=O)c1ccc(Cl)cc1)N1CCC(N2CCCCC2)CC1 (single isomer, unassigned; enantiomer b)
IC50: > 1000 nM

O=C(OCC1CCc2ccccc2N1S(=O)(=O)c1ccc(Cl)cc1)N1CCC(N2CCCCC2)CC1 (single isomer, unassigned; enantiomer a)
IC50: 39 nM

O=C(NCc1ccncc1)OCC1CCc2ccccc2N1S(=O)(=O)c1ccc(Cl)cc1 (centres undefined)
IC50: 1640 nM

CCN(Cc1ccnc(N)c1)C(=O)OCC1CCc2ccccc2N1S(=O)(=O)c1ccc(Cl)cc1 (centres undefined)
IC50: 580 nM

CCN(Cc1ccncc1)C(=O)OCC1CCc2ccccc2N1S(=O)(=O)c1ccc(Cl)cc1 (centres undefined)
IC50: 88 nM

O=C(OCC1CCc2ccccc2N1S(=O)(=O)c1ccc(Cl)cc1)N1CCC(N2CCCCC2)CC1 (stereo in doubt; 26)
IC50: 73 nM

CCN(CCCN1CCCC1)C(=O)OCC1CCc2ccccc2N1S(=O)(=O)c1ccc(Cl)cc1 (centres undefined)
IC50: 172 nM

CN(C)C1CCN(C(=O)OCC2CCc3ccccc3N2S(=O)(=O)c2ccc(Cl)cc2)CC1 (centres undefined)
IC50: 629 nM
